The results in this text go back to the METLIN SMRT retention time set (Domingo-Almenara et al. 2019).

This data set in a line: gradient 5% acetonitrile 3 min, to 50% in 2 min, to 85% in 15 min, held 3 min, 100 µL/min. Particulars: column: Zorbax Extend-C18 2.1 x 50 mm; eluents: water / acetonitrile, 0.1% formic acid. Put shortly: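 The mobile phases were water and acetonitrile, each with 0.1% formic acid, pumped at 100 μL/min through a Zorbax Extend-C18 column (2.1 × 50 mm, 1.8 μm). Pure standards were injected as mixtures of ~100 molecules and detected by a quadrupole time-of-flight mass spectrometer in positive and negative ionization mode. Retention time came from computationally picked adduct peaks, each inspected by hand.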
Turning to `COc1ccc(N2CCN(C(=O)c3cn(-c4cc(N5CCCCC5)ncn4)cn3)CC2)cc1`, the RP-LC retention time was 817 s. In the case of `O=S(=O)(Cc1cccc(Cl)c1)NCCc1noc(-c2ccccc2)n1` it was 971 s; in that of `O=C(CN1CCC(c2nc(-c3cccs3)no2)CC1)NCc1ccc(F)cc1`, 684 s; in that of `CCc1nc2cc(N3CCC(C(=O)NCc4ccc5c(c4)OCO5)CC3)cnc2nc1CC`, 799 s.

For the compound `COc1ccccc1-c1noc(-c2nnn(Cc3nc(-c4ccccc4OC)oc3C)c2C)n1`, the RP-LC retention time is 1060 s.

As to `COc1ccc(NC(=O)CN2CCc3[nH]c4ccc(OC)cc4c(=O)c3C2)c(OC)c1`, the RP-LC retention time stood at 609 s. `COc1cc(OC)c(NC(=O)N2CCc3nc(-c4ccc(F)cc4)ncc3C2)cc1Cl` registered an RP-LC retention time of 1020 s. Regarding `O=C(c1ccn[nH]1)N1CCCC(Cn2c(C3CC3)nc3cccnc32)C1` (stereo unspecified), the RP-LC retention time came out at 578 s. `Cc1cccc2nnc(N3CCC(C(=O)NCc4ccccc4F)CC3)n12` registered an RP-LC retention time of 591 s. In the case of `COCc1nc(C2CCCN(C(=O)NC3CCCC3)C2)no1` (stereo unspecified) it was 743 s; in that of `O=C(Nc1ccc(N2CCN(C3CCCCC3)C2=O)nc1)c1cc(F)cc(F)c1`, 1020 s; in that of `CCOc1ccc(Nc2c(-c3cccc(O)c3)nc3cnccn23)cc1`, 746 s. With `CCCN(CC1CCOC1)C(=O)c1cc(F)cc(F)c1` (stereo unspecified) the figure was 808 s; with `CCN(CC)S(=O)(=O)c1ccc(C)c(-c2nnc(-c3ccccc3Cl)o2)c1`, 1140 s; with `CCc1ccc(CNC(=O)c2cc3n(n2)CC(C)(C(=O)NCc2ccc(F)cc2)N(C)C3=O)cc1` (stereo unspecified), 858 s. Compound `COc1cc(-c2nc3ncccn3c2Nc2cccc(Cl)c2C)ccc1O` had an RP-LC retention time of 715 s. `O=C(NCc1ccc2c(c1)OCO2)C1CCN(c2cn[nH]c(=O)c2)C1` (stereo unspecified) came in with an RP-LC retention time of 627 s. The compound `O=C(NCCC1=CCCCC1)C1CCN(c2cnc3nccnc3c2)CC1` had an RP-LC retention time of 737 s. With `Cc1ccc(S(=O)(=O)N2CCc3c(c(-c4nnc(-c5ccccc5F)o4)nn3C)C2)cc1` the figure was 955 s; with `CC(C)CNC(=O)CCn1c(=O)c2ccccc2n2c(=O)n(Cc3ccccc3)nc12`, 882 s. With `COc1ccc(-c2nc(C3CC(=O)N(c4ccc(F)cc4)C3)no2)c(OC)c1` (stereo unspecified) the figure was 898 s. Compound `Cc1ccc(NC(=O)Cn2nc(N3CCSCC3)c3ccccc3c2=O)cc1` returned an RP-LC retention time of 1170 s. For the compound `CSc1ncn(-c2nc(NC(C)C)nc(N(C)C)n2)n1`, the RP-LC retention time was 874 s.

As for `O=C(c1cnccn1)N1CC(c2nc(CCOCC3CC3)no2)C1`, the RP-LC retention time worked out at 691 s.

Regarding `Cc1nn(C)c(C)c1C(C)NC(=O)C1CCN(c2cnn(Cc3ccccc3)c(=O)c2)CC1` (stereo unspecified), the RP-LC retention time was determined as 650 s. Consider `O=C(Cn1nc(N2CCSCC2)c2ccccc2c1=O)Nc1ccc(Br)cc1F`, for which the RP-LC retention time came to 1060 s.

On to `Cc1nnc(N2CCCC(C(=O)NCCC3=CCCCC3)C2)c2nn(-c3ccccc3)c(C)c12` (stereo unspecified), for which the RP-LC retention time is 803 s. In the case of `COC(=O)c1c(NCc2ccc(C(F)(F)F)cc2)c2cc(F)ccc2[nH]c1=O` it was 840 s; in that of `CCOC(=O)COc1ccccc1C1C(C(=O)OC)=C(C)NC2=C1C(=O)c1ccccc12` (stereo unspecified), 957 s; in that of `O=C(Cn1ccnc1-c1ccnc(N2CCCC2)c1)NCc1ccccc1Cl`, 606 s.

For the compound `CC(=O)N1CCC2(CC1)OC(=O)C(C)=C2C(=O)NCCCN1CC(C)CC(C)C1` (stereo unspecified), the RP-LC retention time worked out at 587 s. In the case of `Cn1c(SCC(=O)N2CCCC2)nnc1-c1ccc2c(c1)OCCCO2` it was 661 s; in that of `CN(C)CCNC(=O)C1CCN(c2nc3ccc(-c4ccc(F)cc4)nc3s2)CC1`, 686 s.

Take `CCN1CCCCc2cc(C(=O)N(C)CC(=O)NC)sc21`: the RP-LC retention time was determined as 738 s. Take `CC(NC(=O)C1CCc2nc(N3CCOCC3)ncc2C1)c1ccco1` (stereo unspecified): the RP-LC retention time is 630 s.

For `COc1ccccc1NC(=O)c1cc(=O)n2c(nc3ccccc32)s1`, the RP-LC retention time came to 964 s.

Turning to `O=C(Cc1ccsc1)N1CCC(Nc2ncnc3c2CCC3)CC1`, the RP-LC retention time amounted to 673 s. In the case of `CCCCN1C(SCC(=O)NCc2cccs2)=NS(=O)(=O)c2ccccc21` it was 782 s; in that of `O=C(O)C1CN(C(=O)c2ccc3c(c2)OCO3)C1`, 579 s; in that of `COc1cc(C(=O)N2CCN(c3cc(N4CCCC4)nc(C)n3)CC2)cc(OC)c1OC`, 619 s. In the case of `Cc1cc(C)cc(NC(=O)N2CCC(n3cnc4ccc(Cl)cc4c3=O)CC2)c1` it was 817 s. With `CC1CCCCN1CCCNC(=O)Cn1c2ccccc2c2cnn(C)c(=O)c21` (stereo unspecified) the figure was 600 s; with `CCS(=O)(=O)c1ccc(C(=O)Nc2nnc(Cc3ccc(Cl)s3)o2)cc1`, 735 s; with `COc1cc(OC)c(C(=O)CCCN2CCCC2)c(OC)c1`, 666 s.

In turn, `COc1ccccc1N1CCN(Cc2nc3nc(C)cc(N4CCCC4)n3n2)CC1` came in with an RP-LC retention time of 606 s. In the case of `CCn1c(=O)oc2cc(-c3noc(-c4cc(Cl)ccc4F)n3)ccc21` it was 1180 s; in that of `CCOc1ccc(-c2csc3c(=O)n(Cc4ccc(F)cc4)cnc23)cc1OCC`, 1100 s. `CCOC(=O)c1noc2nc(C)nc(Nc3ccc(F)cc3)c12` came in with an RP-LC retention time of 962 s. In the case of `Cc1ccc(CNc2nc(-c3ccc(Cl)cc3)nc3ccccc23)o1` it was 865 s; in that of `COc1cc(OC)cc(N2C(=O)c3cc(C)nn3CC2(C)C(=O)NCc2ccc(F)cc2)c1` (stereo unspecified), 829 s. Compound `O=C(NC1CCCCC1)C1CCN(c2cn[nH]c(=O)c2)C1` (stereo unspecified) gave an RP-LC retention time of 614 s. With `Cc1nc(-c2ccc3c(c2)CCN3C(=O)c2nccc3ccccc23)cs1` the figure was 1040 s; with `O=C(c1cnccn1)N1CC(c2nc(CCOCC3CCCC3)no2)C1`, 601 s. In turn, `COc1cccc(CCNC(=O)C2CCCN(c3ncnc4c3nc3n4CCCCC3)C2)c1OC` (stereo unspecified) yielded an RP-LC retention time of 758 s.

Regarding `CC1CCCN(c2nccnc2SCC(=O)Nc2ccc(F)cc2Cl)C1` (stereo unspecified), the RP-LC retention time is 1300 s. With `O=C(Nc1ccccc1)Nc1c(-c2ccc(F)cc2)nc2ccccn12` the figure was 662 s. With `COc1ccc(C(=O)N2CCc3nc(CNC(=O)C4CCC4)n(C)c3C2)cn1` the figure was 585 s. With `CCc1nccn1Cc1noc(-c2cccc(Cl)c2)n1` the figure was 656 s; with `CCNc1nc(C)cc(N2CCN(S(=O)(=O)c3ccccc3C(F)(F)F)CC2)n1`, 732 s. Compound `COc1ccc(N2CCN(c3nc(C(=O)NC4CC4)cs3)CC2)cc1` registered an RP-LC retention time of 832 s. In the case of `Cc1noc(C)c1CC(=O)N1CCc2nn(CC3CC3)c(=O)n2CC1` it was 626 s. For `CN1C(=O)C2(CCN(C(=O)NC3CCCCC3)CC2)c2ccccc21`, the RP-LC retention time was 807 s. With `COc1ccc(-c2nc(C)cc(C)c2CNC(=O)C2CCCC2)cc1` the figure was 638 s. With `O=S(=O)(c1cccc(F)c1)N1CCc2nc(-c3ccc(Cl)cc3)ncc2C1` the figure was 1130 s; with `COc1ccc(-c2nn3c(-c4cc(C(C)C)[nH]n4)nnc3s2)c(OC)c1`, 915 s.

The compound `Cc1ccc(C(=O)N(C)C2CCc3nnc(C)n3CC2)s1` (stereo unspecified) yielded an RP-LC retention time of 613 s. For `CCCCc1nnc(NC(=O)C2CC(=O)N(CCc3c[nH]c4ccc(OC)cc34)C2)s1` (stereo unspecified), the RP-LC retention time was found to be 766 s. Consider `CCCn1ccc2sc(C)c(C(=O)NC3CCCCCC3)c2c1=O`, for which the RP-LC retention time was determined as 897 s.

Take `CN1CCCC1c1nc(C2CN(C(=O)c3cnccn3)C2)no1` (stereo unspecified): the RP-LC retention time worked out at 546 s. In the case of `Cc1cccc(NC(=O)Cn2ccc3ccc(-c4nnc(C)o4)cc32)n1`, the RP-LC retention time turned out to be 700 s. In turn, `Cc1ccc(-c2csc(NC(=O)c3ccccc3Br)n2)cc1` came in with an RP-LC retention time of 1080 s. In the case of `CCc1noc(NC(C)=O)c1-c1ccc(C)c(S(=O)(=O)Nc2cccc(F)c2)c1` it was 822 s; in that of `CC(C)CCNC(=O)C1CCN(S(=O)(=O)c2ccc3c(c2)sc(=O)n3C)CC1`, 832 s; in that of `O=c1n(Cc2ccccc2)nc2c(S(=O)(=O)N3CCOCC3)cccn12`, 721 s. Take `CCN1CCn2cc(S(=O)(=O)Nc3ccc(OC)cc3C)cc2C1=O`: the RP-LC retention time was 716 s.

For the compound `O=S(=O)(Nc1ccc(Nc2ccc(-n3cccn3)nn2)cc1)c1ccc(F)cc1F`, the RP-LC retention time is 788 s. In the case of `COc1ccc(CNC(=O)C(=O)NCC(c2ccc3c(c2)OCO3)N2CCOCC2)cc1` (stereo unspecified) it was 643 s; in that of `Cc1cccc(NC(=O)c2ccc(N3CCCC3)nn2)n1`, 612 s.

Consider `CCOC(=O)c1oc2ccc(S(=O)(=O)N3CCC(c4noc(C5CC5)n4)C3)cc2c1C` (stereo unspecified), for which the RP-LC retention time amounted to 1000 s.

`c1cc(-n2nnc3cnccc32)ccn1` registered an RP-LC retention time of 637 s. `O=C(Nc1ccc(OCc2nnc(-c3ccccc3)o2)cc1)c1ccc(Cl)nc1` returned an RP-LC retention time of 898 s.
